From publication PMC8387043, “Host Poly(A) Polymerases PAPD5 and PAPD7 Provide Two Layers of Protection That Ensure the Integrity and Stability of Hepatitis B Virus RNA” (Journal of Virology, 2021)

Experiments:
HCV = experiment: Antiviral selectivity panel, luciferase in Huh-7 cells; format: cell-based; details: Hepatitis C virus; Huh-7, Luciferase
HBV RNA poly(A) tails [1] = details: Huh-7, 100 nM
HBV RNA poly(A) tails [2] = experiment: HBV poly(A) tail length and composition (NGS) in HepAD38 cells; format: cell-based, hepatitis B virus; details: HepAD38, 70 nM
Method: RNA metabolism in most eukaryotic mRNAs employs the 3′ deadenylation pathway in which poly(A) tail shortening is often observed prior to mRNA degradation ([38][–][40]). We therefore determined the HBV poly(A) tail length and composition from HepAD38 cells in the presence or absence of AB-452. To amplify the HBV poly(A) tail, G/I (guanosine and inosine nucleotides) tailing was added to the 3′ ends of mRNA transcripts, and the newly added G/I tails were used as the priming sites to synthesize the cDNA that would be used for amplification of HBV poly(A) tails. The lengths and compositions of the amplicons containing the HBV RNA poly(A) tails were analyzed by next-generation sequencing (PacBio Sequel sequencing platform). […] The poly(A) tails amplified from β-actin cDNAs served as the negative control, which was not affected by the treatment (Fig. 3D).
ACTB GSP primers include 5′-[…] -3′ (sense) and 5′-[…] -3′(antisense). Amplified products were used as loading control. […] Accuracy cutoff default was 0.9.

HBV = experiment: Intracellular HBV pgRNA and sRNA by Northern blotting in HepG2.2.15 cells; format: cell-based, hepatitis B virus; details: HepG2.2.15, 48 h, 1,000 nM
Method: Total cellular RNA was extracted from HepG2.2.15 or HepAD38 cells treated with or without antiviral compounds using TRIzol reagent according to the manufacturer's directions (Thermo Fisher Scientific, Waltham, MA). Northern blotting was performed as described previously ([1]). Briefly, total RNA was separated in a 1.5% agarose gel and transferred onto an Amersham Hybond-XL membrane (product no. GERPN303S; GE Healthcare, IL, USA). Membranes were probed with an [α-^32P]UTP (PerkinElmer, CT, USA)-labeled minus strand-specific full-length HBV riboprobe (3.2 kb) transcribed from plasmid pSP65_HBV(+) DNA. Membranes were exposed to a phosphoimager screen, and the hybridization signals were quantified using Image Studio software (Li-Cor Biosciences, NE, USA).

COCCCOc1cc2c(nc1OC)-c1cc(=O)c(C(=O)O)cn1[C@H](C(C)C)C2 [AB-452]
EC50 (HCV): > 30 µM | poly(A) tail length of H133_dSLα transcripts (HBV RNA poly(A) tails [1]; untreated 71): 62 nucleotides | average poly(A) tail length of H133 transcripts (HBV RNA poly(A) tails [1]; untreated 124): 64 nucleotides | overall guanylation frequency, H133 (HBV RNA poly(A) tails [1]; untreated about 60%): 24% | average HBV RNA poly(A) tail length (HBV RNA poly(A) tails [2]; 4 h, untreated around 100): 58 nucleotides | fraction of poly(A) tails containing internal G (HBV RNA poly(A) tails [2]; untreated 64%): 25% | sRNA (%) of untreated controls (HBV): ~18%
